Data taken from ChEMBL document CHEMBL5331108, “Design and Synthesis of 4-Fluorophenyl-5-methylene-2(5H)-furanone Derivatives as Potent Quorum Sensing Inhibitors” (J Med Chem, 2023).
≈ marks a conversion by molar mass, not a printed value. Calls of active or inactive are those of the source. No cut-off for these calls is given here.

What was measured:
[1] = system: Pseudomonas aeruginosa; experiment: Antibacterial activity against Pseudomonas aeruginosa PAO1 assessed as inhibition of bacterial growth at […] incubated for 24 hrs by absorbance based microplate reader analysis relative to control; assay type: functional; details: dose 3.2 µg/ml
[2] = system: Pseudomonas aeruginosa; experiment: Antibacterial activity against Pseudomonas aeruginosa PAO1 assessed as inhibition of bacterial growth at 256 ug/ml measured after 25 hrs by absorbance based assay; assay type: functional, organism-based; details: dose 256.0 µg/ml
[3] = system: Pseudomonas aeruginosa; experiment: Synergistic antibacterial activity against Pseudomonas aeruginosa 27853 assessed as inhibition of bacterial growth at 256 ug/ml incubated for 24 hrs in the presence of Clarithromycin by absorbance based microplate reader analysis relative to control; assay type: functional
[4] = system: Pseudomonas aeruginosa; experiment: Synergistic antibacterial activity against Pseudomonas aeruginosa 27853 assessed as inhibition of bacterial growth incubated for 24 hrs in the presence of Clarithromycin by absorbance based microplate reader analysis; assay type: functional, organism-based; details: dose 1-256 µg/ml
[5] = system: Bacillus pumilus; experiment: Antibacterial activity against penicillin-susceptible Bacillus pumilus CMCC63202 assessed as inhibition of bacterial growth incubated for 20 hrs by CLSI protocol based microdilution method; assay type: functional
[6] = system: Pseudomonas aeruginosa; experiment: Synergistic antibacterial activity against Pseudomonas aeruginosa PAO1 assessed as inhibition of bacterial growth at 256 ug/ml incubated for 24 hrs in the presence of Clarithromycin by absorbance based microplate reader analysis relative to control; assay type: functional
[7] = system: Staphylococcus aureus; experiment: Antibacterial activity against methicillin-resistant Staphylococcus aureus ATCC43300 assessed as inhibition of bacterial growth incubated for 20 hrs by CLSI protocol based microdilution method; assay type: functional
[8] = system: Bacillus subtilis; experiment: Antibacterial activity against penicillin-susceptible Bacillus subtilis ATCC9372 assessed as inhibition of bacterial growth incubated for 20 hrs by CLSI protocol based microdilution method; assay type: functional
[9] = system: Pseudomonas aeruginosa; experiment: Inhibition of biofilm formation in Pseudomonas aeruginosa PAO1 at 32 ug/ml incubated for 20 hrs by crystal violet staining based analysis; assay type: functional; details: dose 32.0 µg/ml
[10] = system: Escherichia coli; experiment: Antibacterial activity against penicillin-susceptible Escherichia coli ATCC25922 assessed as inhibition of bacterial growth incubated for 20 hrs by CLSI protocol based microdilution method; assay type: functional
[11] = system: Pseudomonas aeruginosa; experiment: Synergistic antibacterial activity against Pseudomonas aeruginosa 27853 assessed as inhibition of bacterial growth at 64 ug/ml incubated for 24 hrs in the presence of Ciprofloxacin by absorbance based microplate reader analysis; assay type: functional
[12] = system: Pseudomonas aeruginosa; experiment: Synergistic antibacterial activity against Pseudomonas aeruginosa 27853 assessed as inhibition of bacterial growth at 1 to 256 ug/ml incubated for 24 hrs in the presence of Ciprofloxacin by absorbance based microplate reader analysis; assay type: functional, organism-based; details: dose 1-256 µg/ml
[13] = Inhibition of quorum sensing system in Pseudomonas aeruginosa PAO1 assessed as inhibition of pyocyanin production at 102.4 ug/ml incubated for 18 hrs by absorbance based assay; details: dose 102.4 µg/ml
[14] = Hemolytic activity in mouse red blood cells assessed as hemolysis rate at 512 ug/ml incubated for 1 hrs by microplate reader analysis relative to control; assay type: toxicity, cell-based, Erythrocyte; details: red blood cells (erythrocytes), at 512 µg/mL, read-out: Activity
[15] = system: Pseudomonas aeruginosa; experiment: Synergistic antibacterial activity against Pseudomonas aeruginosa PAO1 assessed as inhibition of bacterial growth at 1 to 256 ug/ml incubated for 24 hrs in the presence of Clarithromycin by absorbance based microplate reader analysis; assay type: functional, organism-based; details: dose 1-256 µg/ml
[16] = Inhibition of quorum sensing system in Pseudomonas aeruginosa PAO1 assessed as inhibition of protease activity at 102.4 ug/ml incubated for 24 hrs by absorbance based assay; details: dose 102.4 µg/ml
[17] = Inhibition of quorum sensing system in Pseudomonas aeruginosa PAO1 assessed as inhibition of rhamnolipid production at 102.4 ug/ml incubated for 24 hrs by absorbance based assay; details: dose 102.4 µg/ml
[18] = system: Staphylococcus aureus; experiment: Antibacterial activity against erthromycin-susceptible Staphylococcus aureus ATCC25923 assessed as inhibition of bacterial growth incubated for 20 hrs by CLSI protocol based microdilution method; assay type: functional
[19] = system: Pseudomonas aeruginosa; experiment: Antibacterial activity against Pseudomonas aeruginosa 27853 assessed as inhibition of bacterial growth at 256 ug/ml measured after 25 hrs by absorbance based assay; assay type: functional, organism-based; details: dose 256.0 µg/ml
[20] = system: Pseudomonas aeruginosa; experiment: Synergistic antibacterial activity against Pseudomonas aeruginosa PAO1 assessed as inhibition of bacterial growth at 1 to 256 ug/ml incubated for 24 hrs in the presence of ciprofloxacin by absorbance based microplate reader analysis; assay type: functional, organism-based; details: dose 1-256 µg/ml
[21] = system: Pseudomonas aeruginosa; experiment: Antibacterial activity against wild type Pseudomonas aeruginosa […] CGMCC1.12483 assessed as inhibition of bacterial growth incubated for 20 hrs by CLSI protocol based microdilution method; assay type: functional
[22] = system: Pseudomonas aeruginosa; experiment: Synergistic antibacterial activity against Pseudomonas aeruginosa PAO1 assessed as inhibition of bacterial growth at 1 ug/ml incubated for 24 hrs in the presence of Clarithromycin by absorbance based microplate reader analysis relative to control; assay type: functional
[23] = system: Pseudomonas aeruginosa; experiment: Antibacterial activity against penicillin-susceptible Pseudomonas aeruginosa ATCC27853 assessed as inhibition of bacterial growth incubated for 20 hrs by CLSI protocol based microdilution method; assay type: functional
[24] = system: Pseudomonas aeruginosa; experiment: Synergistic antibacterial activity against Pseudomonas aeruginosa 27853 assessed as inhibition of bacterial growth by measuring fold change in ciprofloxacin at 1 to 256 ug/ml incubated for 24 hrs by absorbance based microplate reader analysis; assay type: functional; details: dose 1-256 µg/ml
[25] = system: Pseudomonas aeruginosa; experiment: Synergistic antibacterial activity against Pseudomonas aeruginosa 27853 assessed as inhibition of bacterial growth at 1 to 128 ug/ml incubated for 24 hrs by absorbance based microplate reader analysis; assay type: functional, organism-based; details: dose 1-128 µg/ml
[26] = system: Pseudomonas aeruginosa; experiment: Synergistic antibacterial activity against Pseudomonas aeruginosa PAO1 assessed as inhibition of bacterial growth at highest concentration incubated for 24 hrs in the presence of ciprofloxacin by absorbance based microplate reader analysis relative to control; assay type: functional
[27] = system: Enterococcus faecalis; experiment: Antibiofilm activity against Enterococcus faecalis ATCC19433 assessed as inhibition of biofilm formation incubated for 24 hrs by crystal violet staining based broth microdilution method; assay type: functional, organism-based; details: ATCC19433, 24 h
[28] = system: Klebsiella pneumoniae; experiment: Antibiofilm activity against Klebsiella pneumoniae ATCC13882 assessed as inhibition of biofilm formation incubated for 24 hrs by crystal violet staining based broth microdilution method; assay type: functional, organism-based; details: ATCC13882, 24 h
[29] = system: Staphylococcus aureus; experiment: Antibiofilm activity against Staphylococcus aureus ATCC33591 assessed as inhibition of biofilm formation incubated for 24 hrs by crystal violet staining based broth microdilution method; assay type: functional, organism-based; details: ATCC33591, 24 h
[30] = system: Pseudomonas aeruginosa; experiment: Inhibition of biofilm formation in Pseudomonas aeruginosa PAO1 assessed as effect on biofilm morphology at 102.4 ug/ml incubated for 24 hrs by scanning electron microscopic analysis; assay type: functional, organism-based; details: dose 102.4 µg/ml
[31] = system: Pseudomonas aeruginosa; experiment: Antibacterial activity against Pseudomonas aeruginosa 27853 assessed as inhibition of bacterial growth at 0.4 ug/ml incubated for 24 hrs by absorbance based microplate reader analysis relative to control; assay type: functional
[32] = system: Pseudomonas aeruginosa; experiment: Antibacterial activity against Pseudomonas aeruginosa PAO1 assessed as inhibition of bacterial growth at 0.4 ug/ml incubated for 24 hrs by absorbance based microplate reader analysis relative to control; assay type: functional
[33] = system: Pseudomonas aeruginosa; experiment: Antibacterial activity against Pseudomonas aeruginosa 27853 assessed as inhibition of bacterial growth at […] incubated for 24 hrs by absorbance based microplate reader analysis relative to control; assay type: functional; details: dose 3.2 µg/ml

SMILES | Activity [2] | Activity [4] | MIC [5] | MIC [7] | MIC [8] | inhibition [9] | MIC [10] | Activity [12] | inhibition [13] | hemolysis at 1 h, 512 ug/ml [14] | Activity [15] | inhibition [16] | inhibition [17] | MIC [18] | Activity [19] | Activity [20] | MIC [21] | MIC [23] | further results
C=C1OC(=O)C(CNC(=O)c2ccc(C)cc2)=C1c1ccc(F)cc1 | inactive | Dose-Dependent Effect | > 512 µg/mL | > 512 µg/mL | > 512 µg/mL | Active | > 512 µg/mL | Active | 55.5% | < 2.5% | Active | Active | Active | > 512 µg/mL | inactive | Active | > 512 µg/mL | > 512 µg/mL | inhibition at […] [1]: 44.6%; inhibition at 256 µg/mL [3]: 45.4%; inhibition at 256 µg/mL [6]: 44.6%; inhibition at 64 µg/mL [11]: 13%; inhibition at 1 µg/mL [22]: 54%
C=C1C(c2ccc(F)cc2)=C(CNC(=O)c2ccc(C)cc2)C(=O)N1c1ccccc1C | inactive | Dose-Dependent Effect | 512 µg/mL (≈ 1200 µM) | > 512 µg/mL | > 512 µg/mL | inactive | > 512 µg/mL | Active | 38.3% | < 2.5% | Active | 8.6% | 45.9% | > 512 µg/mL | inactive | Active | 512 µg/mL (≈ 1200 µM) | > 512 µg/mL | fold change (FC) [24]: >=1.5
C=C1OC(=O)C(CNC(=O)c2ccc(Br)cc2)=C1c1ccc(F)cc1 | inactive | Dose-Dependent Effect | > 512 µg/mL | 8 µg/mL (≈ 19.9 µM) | 16 µg/mL (≈ 39.8 µM) | inactive | > 512 µg/mL | Active | 34.7% | > 2.5% | Active | 8.6% | 48.5% | > 512 µg/mL | inactive | Active | > 512 µg/mL | > 512 µg/mL | fold change (FC) [24]: >=1.5; Activity [25]: Active
C=C1OC(=O)C(CNC(=O)c2ccc(OC)cc2)=C1c1ccc(F)cc1 | inactive | Dose-Dependent Effect | 32 µg/mL (≈ 90.6 µM) | 64 µg/mL (≈ 181 µM) | 128 µg/mL (≈ 362 µM) | Active | > 512 µg/mL | Active | 44% |  | Active | 8.6% | Active | 32 µg/mL (≈ 90.6 µM) | inactive | Active | > 512 µg/mL | > 512 µg/mL | inhibition (INH) [26]: 90.53%
O=C1O/C(=C\c2cc(Br)c(O)c(Br)c2)C(c2ccc(O)c(Br)c2)=C1C(=O)c1ccccc1 |  |  |  |  |  |  |  |  |  |  |  |  |  |  |  |  |  |  | IC50 [27]: 3.6 µg/mL (≈ 5.8 µM); IC50 [28]: 7.5 µg/mL (≈ 12.1 µM); IC50 [29]: 0.7 µg/mL (≈ 1.13 µM)
CC[C@H]1OC(=O)[C@H](C)[C@@H](O[C@H]2C[C@@](C)(OC)[C@@H](O)[C@H](C)O2)[C@H](C)[C@@H](O[C@@H]2O[C@H](C)C[C@H](N(C)C)[C@H]2O)[C@](C)(O)C[C@@H](C)CN(C)[C@H](C)[C@@H](O)[C@]1(C)O [AZITHROMYCIN] |  |  | 0.25 µg/mL (≈ 0.334 µM) | 256 µg/mL (≈ 342 µM) | 0.25 µg/mL (≈ 0.334 µM) |  | 128 µg/mL (≈ 171 µM) |  |  |  |  |  |  | 0.25 µg/mL (≈ 0.334 µM) |  |  | 256 µg/mL (≈ 342 µM) | 16 µg/mL (≈ 21.4 µM) | inhibition [30]: inactive
O=C(O)c1cn(C2CC2)c2cc(N3CCNCC3)c(F)cc2c1=O [CIPROFLOXACIN] |  |  |  |  |  |  |  |  |  |  |  |  |  |  |  |  |  |  | inhibition at 0.4 µg/mL [31]: 26.2%; inhibition at 0.4 µg/mL [32]: 42.1%
CC[C@H]1OC(=O)[C@H](C)[C@@H](O[C@H]2C[C@@](C)(OC)[C@@H](O)[C@H](C)O2)[C@H](C)[C@@H](O[C@@H]2O[C@H](C)C[C@H](N(C)C)[C@H]2O)[C@](C)(OC)C[C@@H](C)C(=O)[C@H](C)[C@@H](O)[C@]1(C)O [CLARITHROMYCIN] |  |  | 0.25 µg/mL (≈ 0.334 µM) | 16 µg/mL (≈ 21.4 µM) | 0.25 µg/mL (≈ 0.334 µM) |  | 128 µg/mL (≈ 171 µM) |  |  |  |  |  |  | 0.25 µg/mL (≈ 0.334 µM) |  |  | 256 µg/mL (≈ 342 µM) | 128 µg/mL (≈ 171 µM) | inhibition at […] [33]: 32.7%
